The record followed here is patent US10370379B2, “Compounds and compositions useful for treating disorders related to NTRK” (BLUEPRINT MEDICINES CORPORATION, priority 2015, dated 2019).

In test [1] the test system is KM12 Cliff (G595R) cell line. Nature of the test: NTRK G595R mutant cellular assay (KM12 Cliff, CellTiter-Glo). Type of test: cell-based. To be noted: for IC50: Homo sapiens, KM12 Cliff (G595R) cells, 72 hr, CellTiter-Glo. On the procedure:
(§1) NTRK Wild Type and G595R Mutant Cellular Assays Protocol
(§2) KM12 wild type colon carcinoma cell line harboring the TPM3-NTRK1 fusion protein was obtained from the National Cancer Institute (NCI). This line has been previously shown to be dependent upon the NTRK activity derived from the NTRK fusion protein for growth and survival. […] Cells were first plated in 384-well plates at 1000 cells/well in complete media (10% FBS and 1% pen/strep) and incubated overnight at 37° C. Cells were then dosed with test articles at varying concentrations using the Bravo liquid handling system. […] Each compound was run in duplicate per plate. […] 72 hr after dosing, assay plates were developed using CellTiter-Glo (Promega) and resultant luminescence was read on the Envision plate reader. IC50 determinations were calculated using a 4-parameter curve fitting algorithm

For test [2], the system named is KM12 wild type colon carcinoma cell line harboring the TPM3-NTRK1 fusion protein. The test can be described thus: NTRK wild type cellular assay (KM12, CellTiter-Glo). Type of test: cell-based. To be noted: for IC50: KM12 wild type cells, 72 hr, CellTiter-Glo; for GI50: NTRK wt cellular, known NTRK inhibitors. The protocol:
as §1, §2

Another test concerns the target wild type NTRK1 enzyme (Homo sapiens (Human), UniProt P04629). Nature of the test: NTRK1 Wild Type Assay at 1 mM ATP. Type of test: biochemical. On the procedure: NTRK1 Wild Type Assay at 1 mM ATP
The reaction was stopped by the addition of 70 μL of Stop buffer (100 mM HEPES pH 7.5, 0.015% Brij 35, 35 mM EDTA and 0.2% of Coating Reagent 3 (Caliper Lifesciences)). The plate was then read on a Caliper EZReader 2 (protocol settings: −1.7 psi, upstream voltage −500, downstream voltage −3000, post sample sip 35 s).

[3] abbreviates: wild type NTRK1, 1 mM ATP, read-out: NTRK1 IC50.

Where two headings read alike, the source gives them in different places.

wild type NTRK1 enzyme, sequence (P04629 33-796): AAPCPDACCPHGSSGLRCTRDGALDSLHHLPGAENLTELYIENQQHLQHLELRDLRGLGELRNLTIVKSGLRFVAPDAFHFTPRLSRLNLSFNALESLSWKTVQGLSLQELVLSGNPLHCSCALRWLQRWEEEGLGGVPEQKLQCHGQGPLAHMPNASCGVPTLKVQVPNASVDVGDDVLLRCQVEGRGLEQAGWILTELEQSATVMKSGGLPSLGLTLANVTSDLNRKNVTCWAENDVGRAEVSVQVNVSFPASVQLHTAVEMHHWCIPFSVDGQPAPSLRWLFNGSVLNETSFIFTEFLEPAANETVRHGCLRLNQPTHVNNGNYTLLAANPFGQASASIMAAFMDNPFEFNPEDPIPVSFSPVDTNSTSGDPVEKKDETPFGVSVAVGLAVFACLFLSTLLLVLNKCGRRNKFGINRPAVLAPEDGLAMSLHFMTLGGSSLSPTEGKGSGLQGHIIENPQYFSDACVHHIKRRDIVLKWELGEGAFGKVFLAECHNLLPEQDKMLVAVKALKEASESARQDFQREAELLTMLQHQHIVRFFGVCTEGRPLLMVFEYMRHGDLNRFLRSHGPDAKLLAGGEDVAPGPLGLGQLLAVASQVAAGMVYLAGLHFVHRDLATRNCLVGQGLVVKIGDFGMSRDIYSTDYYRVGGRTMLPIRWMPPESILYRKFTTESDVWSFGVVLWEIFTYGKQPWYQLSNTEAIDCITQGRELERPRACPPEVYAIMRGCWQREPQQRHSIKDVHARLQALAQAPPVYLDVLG

Take `N#Cc1cnn2ccc(N3C[C@@H](F)C[C@@H]3c3cc(F)cnc3Cl)nc12` [Compound 10]: the IC50 (in test [1]; in test [2] (Homo sapiens); at wild type NTRK1 enzyme (setting [3])) was below 10 nM throughout.

For `N#Cc1cnn2cc(F)c(N3C[C@@H](F)C[C@@H]3c3cc(F)cc(C(N)=O)c3)nc12` [Compound 15], the IC50 in test [1] is 10 to 100 nM; in test [2] (Homo sapiens), 10 to 100 nM; on wild type NTRK1 enzyme (setting [3]), below 10 nM.

On to `CC(C)(O)c1cc(F)cc([C@H]2C[C@H](F)CN2c2ccn3ncc(C#N)c3n2)c1` [Compound 14, 5-((2R,4S)-4-fluoro-2-(3-fluoro-5-(2-hydroxypropan-2-yl)phenyl)pyrrolidin-1-yl)pyrazolo[1,5-a]pyrimidine-3-carbonitrile], for which the figures for the IC50 (in test [1]; in test [2] (Homo sapiens); at wild type NTRK1 enzyme (setting [3])) were 100 to 1000 nM, 10 to 100 nM and 10 to 100 nM, respectively.

For `CNC(=O)c1cc(F)cc([C@H]2C[C@H](F)CN2c2ccn3ncc(C#N)c3n2)c1` [Compound 20, 3-((2R,4S)-1-(3-cyanopyrazolo[1,5-a]pyrimidin-5-yl)-4-fluoropyrrolidin-2-yl)-5-fluoro-N-methylbenzamide], the IC50 (in test [1]; in test [2] (Homo sapiens); on wild type NTRK1 enzyme (setting [3])) was 10 to 100 nM throughout.

The compound `C[C@@H](Oc1cc(-c2cnn(C3CCNCC3)c2)cnc1N)c1c(Cl)ccc(F)c1Cl` [Crizotinib, reference compound] registered a GI50 in test [2] (Homo sapiens, KM12) of 87 nM.

Take `COc1ncc(F)cc1[C@H]1C[C@H](F)CN1c1ccn2ncc(C#N)c2n1` [Compound 7, 5-((2R,4S)-4-fluoro-2-(5-fluoro-2-methoxypyridin-3-yl)pyrrolidin-1-yl)pyrazolo[1,5-a]pyrimidine-3-carbonitrile]: the IC50 (in test [1]; in test [2] (Homo sapiens); at wild type NTRK1 enzyme (setting [3])) was below 10 nM throughout.

For `N#Cc1cnn2ccc(N3C[C@@H](F)C[C@@H]3c3cc(F)ccc3C(N)=O)nc12` [Compound 22, 2-((2R,4S)-1-(3-cyanopyrazolo[1,5-a]pyrimidin-5-yl)-4-fluoropyrrolidin-2-yl)-4-fluorobenzamide], the IC50 in test [1] fell in the range of 100 to 1000 nM; in test [2] (Homo sapiens) it was 10 to 100 nM; on wild type NTRK1 enzyme (setting [3]), 10 to 100 nM.

With `N#Cc1cnn2ccc(N3C[C@@H](C#N)C[C@@H]3c3cc(F)ccc3F)nc12` [Compound 5, 5-((2R,4S)-4-cyano-2-(2,5-difluorophenyl)pyrrolidin-1-yl)pyrazolo[1,5-a]pyrimidine-3-carbonitrile], the results for the IC50 (in test [1]; in test [2] (Homo sapiens); on wild type NTRK1 enzyme (setting [3])) were 100 to 1000 nM, 10 to 100 nM and 10 to 100 nM, respectively.

For `N#Cc1cnn2ccc(N3C[C@@H](F)C[C@@H]3c3cncc(F)c3)nc12` [Compound 1, 5-((2R,4S)-4-fluoro-2-(5-fluoropyridin-3-yl)pyrrolidin-1-yl)pyrazolo[1,5-a]pyrimidine-3-carbonitrile], the IC50 in test [1] is 10 to 100 nM; in test [2] (Homo sapiens), below 10 nM; at wild type NTRK1 enzyme (setting [3]), below 10 nM.

As for `CC(C)NC(=O)[C@H]1CC[C@@H](n2c(NC(=O)c3ccc(F)cc3)nc3ccc(CN4CCC(C(C)(C)O)CC4)cc32)CC1` [TSR-011, reference compound], the 50% growth inhibitory concentration (GI50) in test [1] (NTRK G595R cellular, known NTRK inhibitors) was 12000 nM; in test [2], 32 nM. On wild type NTRK1 enzyme (NTRK wt, known NTRK inhibitors, read-out: NTRK wt Enzyme Assay IC50), the IC50 turned out to be 2.3 nM.

As for `CN(C)C(=O)c1cc(F)cc([C@H]2C[C@H](F)CN2c2ccn3ncc(C#N)c3n2)c1` [Compound 21], the IC50 fell in the range of 100 to 1000 nM in test [1], 10 to 100 nM in test [2] (Homo sapiens) and 10 to 100 nM at wild type NTRK1 enzyme (setting [3]).

On to `N#Cc1cnn2ccc(N3CC(F)(F)C[C@@H]3c3cncc(F)c3)nc12` [Compound 3, (R)-5-(4,4-difluoro-2-(5-fluoropyridin-3-yl)pyrrolidin-1-yl)pyrazolo[1,5-a]pyrimidine-3-carbonitrile], for which the IC50 in test [1] lay in the range of 100 to 1000 nM; in test [2] (Homo sapiens), 10 to 100 nM; at wild type NTRK1 enzyme (setting [3]), 10 to 100 nM.

As for `N#Cc1cnn2ccc(N3C[C@@H](F)C[C@@H]3c3cc(F)cc(C(N)=O)c3)nc12` [Compound 11], the IC50 in test [1] is 10 to 100 nM; in test [2] (Homo sapiens), below 10 nM; on wild type NTRK1 enzyme (setting [3]) it was below 10 nM.

For `N#Cc1cnn2ccc(N3C[C@@H](F)C[C@@H]3c3cc(F)cc(Cl)c3)nc12` [Compound 9], the IC50 (in test [1]; in test [2] (Homo sapiens); on wild type NTRK1 enzyme (setting [3])) was below 10 nM in each case.

As for `Cn1cc(F)cc([C@H]2C[C@H](F)CN2c2ccn3ncc(C#N)c3n2)c1=O` [Compound 8, 5-((2R,4S)-4-fluoro-2-(5-fluoro-1-methyl-2-oxo-1,2-dihydropyridin-3-yl)pyrrolidin-1-yl)pyrazolo[1,5-a]pyrimidine-3-carbonitrile], the IC50 in test [1] was in the range of 100 to 1000 nM; in test [2] (Homo sapiens), 10 to 100 nM; at wild type NTRK1 enzyme (setting [3]), 10 to 100 nM.

Take `N#Cc1cnn2ccc(N3C[C@@H](F)C[C@@H]3c3cc(F)cc(C(=O)NCC4CC4)c3)nc12` [Compound 19]: the IC50 in test [1] was 10 to 100 nM; in test [2] (Homo sapiens), 10 to 100 nM; at wild type NTRK1 enzyme (setting [3]), below 10 nM.

Turning to `N#Cc1cnn2ccc(N3C[C@@H](F)C[C@@H]3c3cc(F)cc(C(=O)NCCO)c3)nc12` [Compound 18], the IC50 (in test [1]; in test [2] (Homo sapiens); on wild type NTRK1 enzyme (setting [3])) was 10 to 100 nM each time.

Regarding `N#Cc1cnn2cc(F)c(N3C[C@@H](F)C[C@@H]3c3cncc(F)c3)nc12` [Compound 4, 6-fluoro-5-((2R,4S)-4-fluoro-2-(5-fluoropyridin-3-yl)pyrrolidin-1-yl)pyrazolo[1,5-a]pyrimidine-3-carbonitrile], the IC50 (in test [1]; in test [2] (Homo sapiens); on wild type NTRK1 enzyme (setting [3])) was below 10 nM in each case.

Regarding `N#Cc1cnn2ccc(N3C[C@@H](F)C[C@@H]3c3cc(F)ccc3OC(F)(F)F)nc12` [Compound 17], the IC50 (in test [1]; in test [2] (Homo sapiens); on wild type NTRK1 enzyme (setting [3])) was below 10 nM each time.

As to `N#Cc1cnn2ccc(N3C[C@@H](F)C[C@@H]3c3cc(F)ccc3F)nc12` [Compound 2], the IC50 (in test [1]; in test [2] (Homo sapiens); at wild type NTRK1 enzyme (setting [3])) was below 10 nM throughout.

As for `COc1c(F)cc(F)cc1[C@H]1C[C@H](F)CN1c1ccn2ncc(C#N)c2n1` [Compound 13], the IC50 (in test [1]; in test [2] (Homo sapiens); at wild type NTRK1 enzyme (setting [3])) was below 10 nM in each case.

`N#Cc1cnn2ccc(N3C[C@@H](F)C[C@@H]3c3cc(F)cc(S(N)(=O)=O)c3)nc12` [Compound 16]: the IC50 in test [1] was 10 to 100 nM; in test [2] (Homo sapiens) it was 10 to 100 nM; at wild type NTRK1 enzyme (setting [3]), below 10 nM.

Regarding `N#Cc1cc(F)cc([C@H]2C[C@H](F)CN2c2ccn3ncc(C#N)c3n2)c1` [Compound 6, 5-((2R,4S)-2-(3-cyano-5-fluorophenyl)-4-fluoropyrrolidin-1-yl)pyrazolo[1,5-a]pyrimidine-3-carbonitrile], the IC50 (in test [1]; in test [2] (Homo sapiens); on wild type NTRK1 enzyme (setting [3])) was below 10 nM in each case.

Regarding `N#Cc1cc(F)cc([C@H]2C[C@H](F)CN2c2nc3c(C#N)cnn3cc2F)c1` [Compound 12], the IC50 (in test [1]; in test [2] (Homo sapiens); at wild type NTRK1 enzyme (setting [3])) was below 10 nM throughout.
